Reference: patent US9593305B2, “Differentiation of pluripotent stem cells” (Janssen Biotech, Inc., priority 2008, dated 2017)

Tests used:
[1] = tested on: H1 human embryonic stem cells; assay: Four-step differentiation before transplant, RT-PCR of pancreatic endoderm markers after step 4 (Example 18); format: cell-based; conditions: GDF-8 100 ng/ml + 2.5 μM compound in step 1, versus activin A and Wnt3a
Procedure: The differentiation process was started three days after the cells were seeded onto 6-well plates coated with reduced growth factor […]™. A four-step protocol was used for the in vitro differentiation of H1 human embryonic stem cells to cells expressing markers characteristic of the pancreatic endoderm lineage. Step 1 was conducted over three days to generate definitive endoderm cells. On the first day of step 1, differentiation was initiated by aspirating spent culture medium and adding an equal volume of RPMI-1640 basal medium (Invitrogen; Cat 22400) with 2% Albumin Bovine Fraction V, Fatty Acid Free (FAF BSA) (Proliant Biologicals; Cat #SKU 68700) and 8 ng/ml bFGF. In one treatment group, cells were exposed to 100 ng/ml activin A (PeproTech; Cat #120-14) with 20 ng/ml Wnt3a (R&D Systems; Cat #1324-WN/CF). In a second treatment group, cells were exposed to 100 ng/ml GDF-8 (R&D Systems; Cat #788-G8) with 2.5 μM Compound 40. In a third treatment group, cells were exposed to 100 ng/ml GDF-8 (R&D Systems; Cat #788-G8) with 2.5 μM Compound 202. […]
Step 4 of the differentiation protocol was conducted over three days. […] On the following day, cells in suspension culture were collected and counted. […]

H1 p49C3 cells = assay: Differentiation on microcarrier beads, cell number and CXCR4 by flow cytometry (Example 22); format: cell-based, human; conditions: three days
Procedure: H1 p49C3 cells were routinely grown on Cytodex3 beads (GE Healthcare Life Sciences, NJ) in a 125 ml spinner flask, according to the methods described in U.S. Patent Application No. 61/116,447. After seven days, cells and beads were transferred to a 6 well plate at a ratio of 30 cm^2 bead surface area per well, and the plate was placed on a rocking platform. Cells on beads in the positive control treatment well (designated AA/Wnt3a) were differentiated with addition of 100 ng/ml activin A (PeproTech; Cat #120-14) and 20 ng/ml Wnt3a (R&D Systems; Cat #1324-WN/CF) for two days followed by 100 ng/ml activin A and 8 ng/ml bFGF (PeproTech Inc.; Cat #: 100-18B) for one day in RPMI-1640 (Invitrogen; Cat #: 22400) with 2% Fatty Acid Free BSA (MP Biomedicals, Inc; Cat #152401) using volumes of 2 ml/well. Compound 34, at a final concentration of 2.5 nM was added to a negative control treatment well (designated CMP alone (JNJ alone)) in RPMI-1640 with 2% Fatty Acid Free BSA (2 ml/well) for three days in the absence of any other growth factor treatment. […]
At the conclusion of treatment and culture, cells were harvested from the beads, according to the methods described in U.S. Patent Application No. 61/116,447. The harvested cells were counted and analyzed by flow cytometry, according to the methods described above. […]

| SMILES | PE markers CDX2, MAFA, NGN3, NKX6.1, PDX1 and Ptf1 alpha at the conclusion of step 4 (RT-PCR) [1] | differentiation into CXCR4 positive cells (H1 p49C3 cells; Compound 34 alone, no growth factor, Cytodex3 beads) | CXCR4 expression, % of the cells, on average (H1 p49C3 cells; Compound 34 with the various growth factor combinations including 50 ng/ml GDF-8, Cytodex3 beads) [%] |
| --- | --- | --- | --- |
| C=CCN1CC(=O)NCCCc2cncc(c2)-c2ncnc(n2)Nc2cccc(c2)C1 [Compound 40, 14-Prop-2-en-1-yl-3,5,7,14,17,23,27-heptaazatetracyclo[19.3.1.1˜2.6˜0.1˜8,12˜]heptacosa-1(25), 2(27), 3,5,8(26), 9,11,21,23-nonaen-16-one] | expressed equivalent levels of PE markers |  |  |
| O=C1CCN2CCN(CC2)Cc2cc(Cl)cc(c2)Nc2ncnc(n2)-c2cncc(c2)CCCN1 [Compound 34, 5-Chloro-1,8,10,12,16,22,26,32-octaazapentacyclo[24.2.2.1˜3.7˜0.1˜9,13˜0.1˜14.18˜]tritriaconta-3(33), 4,6,9(32), 10,12,14(31), 15,17-nonaen-23-one] |  | did not differentiate into CXCR4 positive cells | 50 |
